From BindingDB's records for doi:10.1021/jm034056q (Wyeth Research, 2003)

Target: Beta-lactamase TEM (Escherichia coli) (UniProt P62593)
Test: In vitro inhibitory activity against Beta-lactamase TEM-1 of class A enzyme

Chain of Beta-lactamase TEM (Escherichia coli) (P62593 whole entry, looked up): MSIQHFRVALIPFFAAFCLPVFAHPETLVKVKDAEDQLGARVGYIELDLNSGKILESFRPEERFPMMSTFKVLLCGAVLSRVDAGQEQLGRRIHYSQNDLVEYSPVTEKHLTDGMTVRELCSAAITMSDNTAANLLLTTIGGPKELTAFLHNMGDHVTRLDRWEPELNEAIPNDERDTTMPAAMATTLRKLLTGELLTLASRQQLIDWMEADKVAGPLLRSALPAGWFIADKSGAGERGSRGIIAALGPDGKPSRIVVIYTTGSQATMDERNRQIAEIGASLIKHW

SMILES | IC50 [nM]
CC1(C)[C@H](C(=O)O)N2C(=O)[C@@]3(C[C@H]3OC3CCCCC3)[C@H]2S1(=O)=O [2'-(cyclohexyloxy)-3,3-dimethyl-7-oxo-4-thia-1-azaspiro[bicyclo[3.2.0]heptane-6,1'-cyclopropane]-2-carboxylic acid 4,4-dioxide] | > 13000
CC(C)(C)[Si](C)(C)O[C@H]1C[C@@]12C(=O)N1[C@@H](C(=O)O)C(C)(C)S(=O)(=O)[C@@H]12 [(2R,5R,6R)-2'-(tert-Butyl-dimethyl-silanyl-oxy)-3,3-dimethyl-7-oxo-4-thia-1-azaspiro[bicyclo[3.2.0]heptane-6,1'-cyclopropane]-2-carboxylic acid 4,4-dioxide] | 17000
CC1(C)[C@H](C(=O)O)N2C(=O)[C@]3(C[C@@H]3OC3CCCCC3)[C@H]2S1(=O)=O [(2S,5R,6R)-2'-(cyclohexyloxy)-3,3-dimethyl-7-oxo-4-thia-1-azaspiro[bicyclo[3.2.0]heptane-6,1'-cyclopropane]-2-carboxylic acid 4,4-dioxide] | 510
CC(C)(C)[Si](C)(C)O[C@@H]1C[C@@]12C(=O)N1[C@@H](C(=O)O)C(C)(C)S(=O)(=O)[C@@H]12 [(2S,5R,6R)-2'-(tert-Butyl-dimethyl-silanyl-oxy)-3,3-dimethyl-7-oxo-4-thia-1-azaspiro[bicyclo[3.2.0]heptane-6,1'-cyclopropane]-2-carboxylic acid 4,4-dioxide] | 12000
CC(C)(C)[Si](C)(C)O[C@H]1C[C@]12C(=O)N1[C@@H](C(=O)O)C(C)(C)S(=O)(=O)[C@@H]12 [(2S,5R,6R)-2'-(tert-Butyl-dimethyl-silanyl-oxy)-3,3-dimethyl-7-oxo-4-thia-1-azaspiro[bicyclo[3.2.0]heptane-6,1'-cyclopropane]-2-carboxylic acid 4,4-dioxide] | 650
CC1(C)[C@H](C(=O)O)N2C(=O)[C@@]3(C[C@@H]3OC3CCCCC3)[C@H]2S1(=O)=O [(2S,5R,6S)-2'-(cyclohexyloxy)-3,3-dimethyl-7-oxo-4-thia-1-azaspiro[bicyclo[3.2.0]heptane-6,1'-cyclopropane]-2-carboxylic acid 4,4-dioxide] | 1700
